Experimental data published in patent US9896482B2, “Beta hairpin peptides having antiviral properties against Dengue virus” (CENTRO DE INGENIERÍA GENÉTICA Y BIOTECNOLOGÍA, priority 2014, dated 2018).
Marks after values point to notes of the source that are not given here. Where a SMILES comes first, the peptide text is derived from it. Bridges are numbered along the chain shown (N, C = ends). [ ]: non-standard residue; d: D form.

Legend:
[1] = Toxicity in Vero cells (MTT assay and manual cell counting); assay type: cell-based; conditions: ‡ non toxic at 1000 μM, read-out: Ctox50
Description: The toxicity of the beta hairpin peptides was assessed with the MTT (3-(4,5-dimethylthiazol-2-yl)-2,5-diphenyltetrazolium bromide, Invitrogen, USA) assay (Mosmann, T. (1983). J. Immunol. Methods 65, 55-63.), and by manual cell counting using a Neubauer chamber. Ninety-six well plates (Costar, USA) were seeded with 200 μL/well of a suspension containing Vero cells at 1×10^5 cells/mL and incubated until the monolayers reached approximately 90% confluence, typically for 18-24 h. After washing the cells twice with DMEM (Dulbecco's Modified Eagle Medium) medium, 50 μL/well were added of the peptide or additive dilutions to be evaluated (Triton ^X-100™ dissolved in PBS was used as positive toxicity control) and the plates were incubated at 37° C. under a 5% CO2 atmosphere for 2 or 24 h. Two different procedures were then employed to measure toxicity: • a) A 2 mg/mL solution of MTT in PBS was added (50 μL/well) and the plates were incubated for further 4 h at 37° C., 5% CO2. The medium was then removed, and 100 μL/well of DMSO were then added to solubilize formazan precipitates. Finally, the optical density (OD) of the supernatants at a wavelength of 540 nm was measured using a plate reader (Sensident Scan™, Merck, Germany). • b) The plates were washed with 200 μL/well of DMEM medium and then a trypsin solution (Sigma, USA) was added at 50 μL/well. After inactivating the trypsin by adding 150 μL/well of DMEM supplemented with 10% FBS, the cells were counted using the Trypan Blue (Gibco, USA) vital stain. The data were processed using the statistical software package Prism v5.3 (GraphPad, USA), using non-linear regression to fit them to a log10 (concentration) vs response curve.

DENV4 = assay: In vivo protection assay, intracranial challenge, DENV4; set-up: species or system Balb/c mice; conditions: 30 μg peptide inoculated intracranially with 10 median lethal doses, 21 days
Description: (§1) An experiment was set up to evaluate the in vivo antiviral activity of peptide PHB4 and compare it to that of peptide HDIII3CL. For this purpose, groups of 12 adult Balb/c mice (20 g average body weight) were anesthetized by ether inhalation and inoculated intracranially with 20 μL of viral preparations containing 10 times the median lethal dose of this model and the peptide to be evaluated. The animals recovered quickly and already appeared alert five minutes after the treatment, and were monitored afterwards for 21 days. The data were evaluated using the Kaplan-Meier logarithmic rank test.

sLRP1-CIV = target: T1, sLRP1-CIV (Homo sapiens, UniProt Q07954); assay: Biacore (SPR) binding to immobilized sLRP1-CIV; conditions: peptides at 20 μM
T1 construct: purchased R&D Systems, USA
Description: The interaction of the beta hairpin peptides with soluble fragments of the LRP1 receptor was studied by Surface Plasmon Resonance (SPR), using a Biacore X unit. In this technique, one of the interaction partners to be studied is immobilized on the surface of a chip, and the other interaction partner is dissolved in a solution that runs through the measurement cell on top of the interaction surface, under conditions of controlled flow. The association and dissociation of interacting partners is measured in resonance units (RU) and plotted, as a function of time, on charts known as ‘sensorgrams’. SPR, therefore, enables the experimenter to obtain detailed information about the interaction without having to label either interaction partner.
In this example, one channel of a CM5 chip (GE Healthcare, USA) was used to immobilize protein sLRP1-CIV on its surface at high density (see Table 6) and recombinant Human Serum Albumin (rHSA, Sigma-Aldrich, USA) was immobilized on the other channel.
Although it was decided to immobilize sLRP1-CIV at high density because these conditions make easier the detection of any potential interactions with compounds whose molecular weight is lower than that of average proteins (such as the peptides this experiment is intended to study), it must be stressed that in high-density surfaces, mass transfer limitations and the possibility of multivalent binding make difficult the accurate determination of kinetic constants. Therefore, and in order to characterize in greater detail the sLRP1-CIV binding surface, different RAP dilutions (0.6-20 μM) were loaded, and RU were registered under conditions of interaction equilibria (250 sec, see FIG. 13B). […] The data also indicate that immobilized sLRP1-CIV faithfully reproduces the previously reported characteristics of the LRP1-RAP interaction.
The binding of beta hairpin peptides to sLRP1-CIV was studied by loading 20 μM dilutions in running buffer of the different peptide variants onto the sLRP1-CIV chip characterized above. The high strength of the resulting signals is consistent with the binding of aggregated, rather than monomeric forms of the peptides. Therefore, the observed variations between different peptides may reflect either differences in the affinity of unitary peptide interactions or differences in aggregation numbers and/or geometries that lead to variations in the number of peptide units able to simultaneously engage immobilized sLRP1-CIV molecules in a multivalent manner. […] The difference between peptides HDIII3CL2 and HDIII3CL is that the former has an additional C-terminal lysine and has, therefore, a stronger cationic character, which may facilitate additional electrostatic interactions with the negatively charged LRP1 receptor.

[2] = system: DENV1 (NIBSC code West Pac 74); assay: Plaque reduction assay in Vero cells, DENV1; assay type: cell-based, Dengue virus; conditions: m.o.i. 0.001, read-out: Antiviral activity IC50 vs DENV1
Description: The cells were grown in 24 well plates until the monolayer reached approximately 90% confluence, after which they were washed twice with MEM medium without Fetal Bovine Serum (FBS). Then, peptide dilutions were added and the cell-peptide mixtures were incubated typically for 1 hour at 37° C., followed by the addition of a DENV serotype 2 preparation (NIBSC code S16803) at a multiplicity of infection (m.o.i.) of 0.001. The cells were then incubated for 1 hour at 37° C., and once the period of incubation with the viral inoculum concluded, were washed again to remove unbound virions and incubated for 5 days at 37° C. in high density medium (MEM supplemented with non-essential amino acids, 1% FBS, 1% carboxymethylcellulose) in order to let viral plaques form. Afterwards, the cells were stained with 0.1% Naphtol Blue Black in 0.15 M sodium acetate. Two replicates per experimental point were used in each assay, and three independent determinations were performed for each sample.
Next, it was decided to compare the antiviral activity of peptides PHB4 and HDIII3CL against all four DENV serotypes, with the objective of comparing their respective IC50 values. […]

DENV3 = assay: In vivo protection assay, intracranial challenge, DENV3; set-up: species or system Balb/c mice; conditions: 30 μg peptide, morbidity evaluated instead of lethality
Description: as §1

DENV2 = assay: In vivo protection assay, intracranial challenge, DENV2; set-up: species or system Balb/c mice; conditions: 30 μg peptide inoculated intracranially with 10 median lethal doses, 21 days
Description: as §1

With `CC[C@H](C)[C@@H]1NC(=O)[C@H](Cc2ccccc2)NC(=O)[C@H](Cc2c[nH]c3ccccc23)NC(=O)[C@H](CC(N)=O)NC(=O)[C@H](C(C)C)NC(=O)[C@H](CCCCN)NC(=O)[C@H](Cc2c[nH]c3ccccc23)NC(=O)[C@H](CCCCN)NC(=O)[C@H]2CCCN2C(=O)[C@H](CCCNC(=N)N)NC(=O)[C@H]([C@@H](C)O)NC(=O)[C@H](Cc2c[nH]c3ccccc23)NC(=O)[C@H](Cc2ccc(O)cc2)NC(=O)[C@H](C(C)C)NC(=O)[C@H](CCC(=O)O)NC(=O)[C@H]([C@@H](C)CC)NC(=O)[C@@H](N)CSSC[C@@H](C(=O)N[C@@H](CCCCN)C(=O)N[C@@H](CCCCN)C(=O)N[C@@H](CCCCN)C(N)=O)NC1=O` [PHB4] (H-CIEVYWTR[dP]KWKVNWFICKKK-NH2; disulfide 1-18; N-terminus assumed) the CC50 [1] was 13 µM, the “Protection (%) DENV4” value (DENV4) was 100*** % and the “Binding to sLRP1-CIV by SPR, in words” value (sLRP1-CIV) was “strongest binding”. The IC50 [2] was 2 nM, the “Protection (%) DENV3” value (DENV3) was 100*** % and the “Protection (%) DENV2” value (DENV2) was 100*** %.
